# Measured values reported in PubChem BioAssay (NCI).
#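 These data come from cells grown in 96-well plates and exposed to compound for 48 hours at five concentrations. Definition used: TGI = concentration required for complete inhibition of growth.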
# Key:
# Assay in all cases: NCI anticancer screen, dose series, 48 h
# [1] = test system: 786-0 renal
# [2] = test system: A498 renal
# [3] = test system: A549 NSCLC
# [4] = test system: ACHN renal
# [5] = test system: BT-549 breast
# [6] = test system: CAKI-1 renal
# [7] = test system: CCRF-CEM leukemia
# [8] = test system: COLO 205 colon
# [9] = test system: DU-145 prostate
# [10] = test system: EKVX NSCLC
# [11] = test system: HCC-2998 colon
# [12] = test system: HCT-116 colon
# [13] = test system: HCT-15 colon
# [14] = test system: HL-60(TB) leukemia
# [15] = test system: HOP-62 NSCLC
# [16] = test system: HOP-92 NSCLC
# [17] = test system: HS 578T breast
# [18] = test system: HT29 colon
# [19] = test system: IGROV1 ovarian
# [20] = test system: K-562 leukemia
# [21] = test system: KM12 colon
# [22] = test system: LOX IMVI melanoma
# [23] = test system: M14 melanoma
# [24] = test system: MALME-3M melanoma
# [25] = test system: MCF7 breast
# [26] = test system: MDA-MB-231 breast
# [27] = test system: MDA-MB-435
# [28] = test system: MDA-N
# [29] = test system: MOLT-4 leukemia
# [30] = test system: NCI-H226 lung
# [31] = test system: NCI-H23 lung
# [32] = test system: NCI-H460 lung
# [33] = test system: NCI-H522 lung
# [34] = test system: NCI/ADR-RES ovarian
# [35] = test system: OVCAR-3 ovarian
# [36] = test system: OVCAR-4 ovarian
# [37] = test system: OVCAR-5 ovarian
# [38] = test system: OVCAR-8 ovarian
# [39] = test system: PC-3 prostate
# [40] = test system: RXF 393 renal
# [41] = test system: SF-268 CNS
# [42] = test system: SF-295 CNS
# [43] = test system: SF-539 CNS
# [44] = test system: SK-MEL-2 melanoma
# [45] = test system: SK-MEL-28 melanoma
# [46] = test system: SK-MEL-5 melanoma
# [47] = test system: SK-OV-3 ovarian
# [48] = test system: SN12C renal
# [49] = test system: SNB-19 CNS
# [50] = test system: SNB-75 CNS
# [51] = test system: SW-620 colon
# [52] = test system: T-47D breast
# [53] = test system: TK-10 renal
# [54] = test system: U251 CNS
# [55] = test system: UACC-257 melanoma
# [56] = test system: UACC-62 melanoma
# [57] = test system: UO-31 renal
smiles,measurement,setting,value
COc1c(OC)c(OC)c2c(=O)c(OC)c(-c3ccc4c(c3)OCO4)oc2c1OC,TGI,[1],> 100 µM
same,TGI,[2],> 100 µM
same,TGI,[3],> 100 µM
same,TGI,[4],> 100 µM
same,TGI,[5],> 100 µM
same,TGI,[6],> 100 µM
same,TGI,[7],> 100 µM
same,TGI,[8],> 100 µM
same,TGI,[9],> 100 µM
same,TGI,[10],> 100 µM
same,TGI,[11],> 100 µM
same,TGI,[12],> 100 µM
same,TGI,[13],> 100 µM
same,TGI,[14],33.4 µM
same,TGI,[15],> 100 µM
same,TGI,[16],> 100 µM
same,TGI,[17],> 100 µM
same,TGI,[18],> 100 µM
same,TGI,[19],> 100 µM
same,TGI,[20],> 100 µM
same,TGI,[21],> 100 µM
same,TGI,[22],> 100 µM
same,TGI,[23],> 100 µM
same,TGI,[24],> 100 µM
same,TGI,[25],> 100 µM
same,TGI,[26],> 100 µM
same,TGI,[27],> 100 µM
same,TGI,[28],> 100 µM
same,TGI,[29],> 100 µM
same,TGI,[30],> 100 µM
same,TGI,[31],> 100 µM
same,TGI,[32],> 100 µM
same,TGI,[33],> 100 µM
same,TGI,[34],> 100 µM
same,TGI,[35],> 100 µM
same,TGI,[36],> 100 µM
same,TGI,[37],> 100 µM
same,TGI,[38],> 100 µM
same,TGI,[39],> 100 µM
same,TGI,[40],> 100 µM
same,TGI,[41],> 100 µM
same,TGI,[42],> 100 µM
same,TGI,[43],> 100 µM
same,TGI,[44],> 100 µM
same,TGI,[45],> 100 µM
same,TGI,[46],> 100 µM
same,TGI,[47],> 100 µM
same,TGI,[48],> 100 µM
same,TGI,[49],> 100 µM
same,TGI,[50],> 100 µM
same,TGI,[51],> 100 µM
same,TGI,[52],> 100 µM
same,TGI,[53],> 100 µM
same,TGI,[54],> 100 µM
same,TGI,[55],> 100 µM
same,TGI,[56],> 100 µM
same,TGI,[57],> 100 µM
Nc1nc(Cl)cc(NCC2(CO)CC=CC2)n1,TGI,[1],> 100 µM
same,TGI,[3],> 100 µM
same,TGI,[4],> 100 µM
same,TGI,[5],> 100 µM
same,TGI,[6],> 100 µM
same,TGI,[7],> 100 µM
same,TGI,[8],> 100 µM
same,TGI,[9],> 100 µM
same,TGI,[10],> 100 µM
same,TGI,[11],> 100 µM
same,TGI,[12],> 100 µM
same,TGI,[13],> 100 µM
same,TGI,[15],> 100 µM
same,TGI,[16],> 100 µM
same,TGI,[17],> 100 µM
same,TGI,[18],> 100 µM
same,TGI,[19],> 100 µM
same,TGI,[20],> 100 µM
same,TGI,[21],> 100 µM
same,TGI,[22],> 100 µM
same,TGI,[24],> 100 µM
same,TGI,[25],> 100 µM
same,TGI,[26],> 100 µM
same,TGI,[27],> 100 µM
same,TGI,[28],> 100 µM
same,TGI,[29],> 100 µM
same,TGI,[30],> 100 µM
same,TGI,[32],> 100 µM
same,TGI,[33],> 100 µM
same,TGI,[34],> 100 µM
same,TGI,[35],> 100 µM
same,TGI,[36],> 100 µM
same,TGI,[37],> 100 µM
same,TGI,[38],> 100 µM
same,TGI,[39],> 100 µM
same,TGI,[40],> 100 µM
same,TGI,[41],> 100 µM
same,TGI,[42],> 100 µM
same,TGI,[43],> 100 µM
same,TGI,[44],> 100 µM
same,TGI,[45],> 100 µM
same,TGI,[46],> 100 µM
same,TGI,[47],> 100 µM
same,TGI,[48],> 100 µM
same,TGI,[49],> 100 µM
same,TGI,[50],> 100 µM
same,TGI,[51],> 100 µM
same,TGI,[52],> 100 µM
same,TGI,[53],> 100 µM
same,TGI,[54],> 100 µM
same,TGI,[55],> 100 µM
same,TGI,[56],> 100 µM
same,TGI,[57],> 100 µM
